Data set [1] is described as follows: Solubility Study (aqueous buffers, dissolution apparatus, LC analysis). It counts as physicochemical. As to conditions: compared to other crystalline forms of Apalutamide, e.g. crystalline form B. On the procedure:
Solubility of Apalutamide was checked using Dissolution apparatus (Lab India D8000) at 37 deg.
Buffers pH. 1.2, 4.5 and 6.8 were prepared as per the USP 36 Solutions/Buffer Solutions 1209.
About 500 mg of Apalutamide were added to the 100 mL buffer (pH 1.2, 4.5 and 6.8) in individual flasks to obtain saturated suspension and the suspension was stirred with 250 rpm for 24 hours. Suspension was observed though out stirring period. Samples were drawn at different intervals on completion of 15 mins, 1 hrs, 4 hrs and 24 hrs from each flask and filtered through 0.45μ PTFE filter; each solution was analyzed for Apalutamide content by liquid chromatography.

Data set [2] can be described thus: Bulk density and tapped (tap) density of powder. It counts as physicochemical. As to conditions: as compared to form A of Apalutamide. From the text:
Bulk density as used in the present application is meant the ratio between mass (weight) and bulk volume for the powder blend. Tapped (tap) density is the maximum packing density of a powder (or blend of powders) achieved under the influence of well defined, externally applied forces. The minimum packed volume thus achieved depends on a number of factors including particle size distribution, true density, particle shape and cohesiveness due to surface forces including moisture. Therefore, the tap density of a material can be used to predict both its flow properties and its compressibility. These two parameters are important in the overall tableting process—which requires that loose powders be compacted into a durable solid form with the correct mechanical strength, porosity and dissolution characteristics—and in capsule filling performance.

Here are results for two molecules from patent US11149017B2, “Solid state forms of apalutamide” (WATSON LABORATORIES INC., priority 2016, dated 2021).

In the case of `CNC(=O)c1ccc(N2C(=S)N(c3cnc(C#N)c(C(F)(F)F)c3)C(=O)C23CCC3)cc1F` [form T11, Apalutamide], the aqueous solubility entry in data set [1] was “higher aqueous solubility”.

Consider `CNC(=O)c1ccc(N2C(=S)N(c3cnc(C#N)c(C(F)(F)F)c3)C(=O)C23CCC3)cc1F` [form T13, Apalutamide], for which, in data set [2], the bulk density entry is on record as “higher bulk density” and the tap density result is “higher tap density”.
